Laboratory results taken from ChEMBL document CHEMBL1201862, “PubChem BioAssay data set” (2004).
Activity calls are given as the source filed them.

How the values were obtained:
[1] = biological target: T1, Apoptotic protease-activating factor 1 (Homo sapiens, UniProt O14727); format: functional
T1 sequence (O14727 whole entry): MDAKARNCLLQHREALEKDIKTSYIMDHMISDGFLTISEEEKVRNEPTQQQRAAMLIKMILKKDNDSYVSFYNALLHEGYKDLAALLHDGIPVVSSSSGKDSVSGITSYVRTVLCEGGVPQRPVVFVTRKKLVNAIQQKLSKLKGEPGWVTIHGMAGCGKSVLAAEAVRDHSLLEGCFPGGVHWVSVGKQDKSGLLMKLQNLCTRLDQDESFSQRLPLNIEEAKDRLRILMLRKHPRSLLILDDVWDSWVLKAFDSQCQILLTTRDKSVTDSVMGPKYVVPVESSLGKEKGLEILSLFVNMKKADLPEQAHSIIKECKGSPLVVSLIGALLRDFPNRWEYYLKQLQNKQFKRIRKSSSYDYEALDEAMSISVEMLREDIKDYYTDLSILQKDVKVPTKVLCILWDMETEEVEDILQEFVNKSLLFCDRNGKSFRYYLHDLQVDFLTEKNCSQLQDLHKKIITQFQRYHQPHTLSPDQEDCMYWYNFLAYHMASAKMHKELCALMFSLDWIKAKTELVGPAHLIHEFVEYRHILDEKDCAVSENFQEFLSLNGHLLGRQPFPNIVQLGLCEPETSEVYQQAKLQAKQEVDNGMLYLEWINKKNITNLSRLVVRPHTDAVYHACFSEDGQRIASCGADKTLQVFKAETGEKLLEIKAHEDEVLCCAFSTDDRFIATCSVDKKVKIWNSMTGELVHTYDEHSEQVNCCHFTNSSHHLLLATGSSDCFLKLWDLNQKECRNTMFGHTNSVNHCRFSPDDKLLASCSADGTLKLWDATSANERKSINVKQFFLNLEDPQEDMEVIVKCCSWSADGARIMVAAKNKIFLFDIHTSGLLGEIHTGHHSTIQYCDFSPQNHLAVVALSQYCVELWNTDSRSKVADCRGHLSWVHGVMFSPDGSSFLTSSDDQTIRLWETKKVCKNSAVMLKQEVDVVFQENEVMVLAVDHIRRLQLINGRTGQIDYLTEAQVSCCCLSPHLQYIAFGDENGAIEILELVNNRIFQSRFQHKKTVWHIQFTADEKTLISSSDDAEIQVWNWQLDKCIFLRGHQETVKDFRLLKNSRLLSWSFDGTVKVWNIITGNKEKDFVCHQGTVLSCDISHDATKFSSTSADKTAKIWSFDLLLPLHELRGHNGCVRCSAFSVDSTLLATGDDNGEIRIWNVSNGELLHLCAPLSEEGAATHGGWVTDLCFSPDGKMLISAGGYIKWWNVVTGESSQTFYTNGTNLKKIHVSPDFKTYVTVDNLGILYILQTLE

[2] = biological target: Nucleotide-binding oligomerization domain-containing protein 2 (Homo sapiens, UniProt Q9HC29); experiment: NOD2 signaling inhibitors, cell-based, luminescence, uHTS, HEK293 (AID 1566); format: functional
Chain of Nucleotide-binding oligomerization domain-containing protein 2 (Q9HC29 whole entry, the tested form may be a part, canonical isoform): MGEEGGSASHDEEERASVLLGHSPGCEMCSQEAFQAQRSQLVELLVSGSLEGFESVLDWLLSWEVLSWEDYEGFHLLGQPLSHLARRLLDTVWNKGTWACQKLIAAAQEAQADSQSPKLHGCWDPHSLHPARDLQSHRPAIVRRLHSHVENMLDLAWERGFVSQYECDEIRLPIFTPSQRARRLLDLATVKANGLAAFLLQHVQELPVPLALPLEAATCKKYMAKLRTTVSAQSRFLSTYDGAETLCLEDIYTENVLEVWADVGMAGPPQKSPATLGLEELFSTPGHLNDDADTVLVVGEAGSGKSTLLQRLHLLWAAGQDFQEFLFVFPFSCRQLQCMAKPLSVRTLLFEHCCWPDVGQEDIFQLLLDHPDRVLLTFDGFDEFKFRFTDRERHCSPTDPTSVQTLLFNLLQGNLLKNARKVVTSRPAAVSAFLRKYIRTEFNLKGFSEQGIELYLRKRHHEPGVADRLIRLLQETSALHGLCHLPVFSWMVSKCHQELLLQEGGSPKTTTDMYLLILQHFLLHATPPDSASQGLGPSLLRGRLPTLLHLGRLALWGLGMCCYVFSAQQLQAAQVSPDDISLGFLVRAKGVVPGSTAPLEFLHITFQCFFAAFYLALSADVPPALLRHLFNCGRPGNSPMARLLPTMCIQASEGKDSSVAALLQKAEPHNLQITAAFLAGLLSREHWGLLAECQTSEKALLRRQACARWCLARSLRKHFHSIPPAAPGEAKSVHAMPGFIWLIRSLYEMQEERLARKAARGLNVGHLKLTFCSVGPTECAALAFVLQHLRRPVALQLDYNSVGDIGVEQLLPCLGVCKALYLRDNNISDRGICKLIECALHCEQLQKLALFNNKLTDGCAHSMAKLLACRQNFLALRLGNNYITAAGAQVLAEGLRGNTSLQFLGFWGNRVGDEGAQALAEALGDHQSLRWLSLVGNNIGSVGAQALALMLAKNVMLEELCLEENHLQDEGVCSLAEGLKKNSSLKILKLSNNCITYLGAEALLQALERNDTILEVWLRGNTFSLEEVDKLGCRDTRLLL

[3] = biological target: Phosphorylase b kinase gamma catalytic chain, liver/testis isoform (Homo sapiens, UniProt P15735); format: functional;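 further: PHKG2 measured as one member of a kinome-wide kinase panel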
[4] = biological target: Homeodomain-interacting protein kinase 2 (Homo sapiens, UniProt Q9H2X6); format: functional;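 further: measured within a kinome-wide kinase profiling panel, HIPK2 being one panel member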
[5] = biological target: Mitogen-activated protein kinase 12 (Homo sapiens, UniProt P53778); format: functional;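 further: measured as one member of a kinome-wide kinase profiling panel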
Chain of Mitogen-activated protein kinase 12 (P53778 whole entry): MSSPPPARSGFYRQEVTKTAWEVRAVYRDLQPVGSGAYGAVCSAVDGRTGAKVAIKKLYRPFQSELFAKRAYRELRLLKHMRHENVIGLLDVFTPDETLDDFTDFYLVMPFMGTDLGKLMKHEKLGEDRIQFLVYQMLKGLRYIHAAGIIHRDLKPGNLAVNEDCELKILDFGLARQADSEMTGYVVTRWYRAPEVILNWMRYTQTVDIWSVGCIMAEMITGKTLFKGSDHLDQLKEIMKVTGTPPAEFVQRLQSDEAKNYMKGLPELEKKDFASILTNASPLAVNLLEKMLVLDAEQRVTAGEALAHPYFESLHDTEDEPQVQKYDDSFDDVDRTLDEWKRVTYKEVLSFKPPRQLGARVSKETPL

[6] = biological target: Inhibitor of nuclear factor kappa-B kinase subunit epsilon (Homo sapiens, UniProt Q14164); experiment: Navigating the Kinome. Panel member name: IKBKE; format: functional
[7] = biological target: Megakaryocyte-associated tyrosine-protein kinase (Homo sapiens, UniProt P42679); format: functional;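 further: affinity measured as one member of a kinase panel (Navigating the Kinome) against MATK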
[8] = biological target: Receptor tyrosine-protein kinase erbB-4 (Homo sapiens, UniProt Q15303); format: functional;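 further: ERBB4 member of a kinome-wide kinase profiling panel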
[9] = biological target: Serine/threonine-protein kinase Chk1 (Homo sapiens, UniProt O14757); format: functional;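 further: measured as one member of a kinome-wide kinase profiling panel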
Chain of Serine/threonine-protein kinase Chk1 (O14757 whole entry): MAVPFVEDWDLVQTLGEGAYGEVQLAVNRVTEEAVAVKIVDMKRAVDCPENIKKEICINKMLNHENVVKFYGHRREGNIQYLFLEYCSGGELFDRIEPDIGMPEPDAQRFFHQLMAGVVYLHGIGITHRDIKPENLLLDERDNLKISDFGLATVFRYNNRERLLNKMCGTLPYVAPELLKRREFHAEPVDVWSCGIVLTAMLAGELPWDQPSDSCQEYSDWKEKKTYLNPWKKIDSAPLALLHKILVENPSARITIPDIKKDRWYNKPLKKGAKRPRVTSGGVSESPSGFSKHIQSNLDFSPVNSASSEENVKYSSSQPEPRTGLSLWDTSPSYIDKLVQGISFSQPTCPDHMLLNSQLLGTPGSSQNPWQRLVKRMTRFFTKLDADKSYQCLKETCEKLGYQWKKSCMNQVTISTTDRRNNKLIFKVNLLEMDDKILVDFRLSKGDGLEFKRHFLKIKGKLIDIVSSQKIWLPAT

Insulin receptor = Insulin receptor (Homo sapiens, UniProt P06213); format: functional;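 further: insulin receptor kinase tested as one member of a kinome-wide kinase panel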
Chain of Insulin receptor (P06213 28-758 limits assumed): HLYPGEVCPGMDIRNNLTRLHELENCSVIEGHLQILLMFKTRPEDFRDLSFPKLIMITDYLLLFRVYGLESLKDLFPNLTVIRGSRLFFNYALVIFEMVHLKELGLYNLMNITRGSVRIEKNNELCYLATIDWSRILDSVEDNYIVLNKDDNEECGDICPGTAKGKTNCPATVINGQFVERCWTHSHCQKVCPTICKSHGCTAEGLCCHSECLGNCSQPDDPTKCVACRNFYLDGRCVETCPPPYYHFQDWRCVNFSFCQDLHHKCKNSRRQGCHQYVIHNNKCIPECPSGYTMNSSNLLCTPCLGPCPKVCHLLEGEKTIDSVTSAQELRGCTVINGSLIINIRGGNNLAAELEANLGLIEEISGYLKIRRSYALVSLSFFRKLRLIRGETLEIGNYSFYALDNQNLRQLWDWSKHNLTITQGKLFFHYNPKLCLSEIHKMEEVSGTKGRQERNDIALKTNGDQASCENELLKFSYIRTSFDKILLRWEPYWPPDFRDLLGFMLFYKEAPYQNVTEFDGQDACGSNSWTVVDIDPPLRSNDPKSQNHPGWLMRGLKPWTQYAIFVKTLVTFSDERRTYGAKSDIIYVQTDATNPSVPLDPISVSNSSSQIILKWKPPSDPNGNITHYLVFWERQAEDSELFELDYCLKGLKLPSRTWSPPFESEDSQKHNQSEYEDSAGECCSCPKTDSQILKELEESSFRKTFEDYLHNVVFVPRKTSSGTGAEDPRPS
Chain of Insulin receptor (P06213 763-1382 limits assumed): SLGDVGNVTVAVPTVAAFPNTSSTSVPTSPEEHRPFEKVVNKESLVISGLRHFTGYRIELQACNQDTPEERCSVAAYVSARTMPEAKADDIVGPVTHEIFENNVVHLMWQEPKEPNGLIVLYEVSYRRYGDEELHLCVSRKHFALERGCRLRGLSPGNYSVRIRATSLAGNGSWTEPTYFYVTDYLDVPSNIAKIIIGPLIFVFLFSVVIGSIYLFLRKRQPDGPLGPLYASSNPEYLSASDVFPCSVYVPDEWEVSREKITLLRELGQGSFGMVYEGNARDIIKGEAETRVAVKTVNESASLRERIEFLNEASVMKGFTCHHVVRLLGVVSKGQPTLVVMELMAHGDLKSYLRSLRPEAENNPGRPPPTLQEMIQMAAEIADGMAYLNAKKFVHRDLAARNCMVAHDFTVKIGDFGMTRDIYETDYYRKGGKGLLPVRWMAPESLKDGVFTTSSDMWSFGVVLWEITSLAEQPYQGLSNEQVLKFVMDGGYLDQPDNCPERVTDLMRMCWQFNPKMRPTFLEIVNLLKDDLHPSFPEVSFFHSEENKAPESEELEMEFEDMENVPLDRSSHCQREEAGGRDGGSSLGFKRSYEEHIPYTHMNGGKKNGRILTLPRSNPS

Aurora kinase A = Aurora kinase A (Homo sapiens, UniProt O14965); format: functional;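 further: value from the Navigating the Kinome kinase panel profiling, panel entry STK6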
[10] = biological target: Interleukin-1 receptor-associated kinase 4 (Homo sapiens, UniProt Q9NWZ3); format: functional
[11] = biological target: Mitogen-activated protein kinase kinase kinase kinase 2 (Homo sapiens, UniProt Q12851); format: functional;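 further: measured as one member of a kinome-wide kinase panel, with MAP4K2 as the panel entry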
Chain of Mitogen-activated protein kinase kinase kinase kinase 2 (Q12851 whole entry): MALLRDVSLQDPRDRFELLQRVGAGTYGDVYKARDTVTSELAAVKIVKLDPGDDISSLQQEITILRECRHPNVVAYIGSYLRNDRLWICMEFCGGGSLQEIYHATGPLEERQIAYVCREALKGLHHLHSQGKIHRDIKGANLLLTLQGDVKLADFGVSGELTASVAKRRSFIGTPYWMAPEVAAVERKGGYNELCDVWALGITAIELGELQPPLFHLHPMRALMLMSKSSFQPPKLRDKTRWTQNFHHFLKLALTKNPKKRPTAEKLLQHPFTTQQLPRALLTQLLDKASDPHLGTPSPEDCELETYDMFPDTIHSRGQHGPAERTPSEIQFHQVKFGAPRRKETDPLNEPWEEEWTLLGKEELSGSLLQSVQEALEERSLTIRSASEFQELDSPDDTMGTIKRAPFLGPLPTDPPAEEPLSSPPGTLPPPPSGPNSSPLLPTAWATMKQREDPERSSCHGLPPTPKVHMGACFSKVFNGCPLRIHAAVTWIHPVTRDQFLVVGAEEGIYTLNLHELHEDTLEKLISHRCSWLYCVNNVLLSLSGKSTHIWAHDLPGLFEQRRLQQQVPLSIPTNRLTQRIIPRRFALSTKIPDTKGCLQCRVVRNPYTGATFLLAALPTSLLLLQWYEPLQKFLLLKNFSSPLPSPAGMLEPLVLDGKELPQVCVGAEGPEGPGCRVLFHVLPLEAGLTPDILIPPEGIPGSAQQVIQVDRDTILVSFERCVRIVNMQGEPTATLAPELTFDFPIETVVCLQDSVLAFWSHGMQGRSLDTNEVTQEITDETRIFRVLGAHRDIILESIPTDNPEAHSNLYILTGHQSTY

[12] = biological target: Calcium/calmodulin-dependent protein kinase type 1 (Homo sapiens, UniProt Q14012); format: functional
Chain of Calcium/calmodulin-dependent protein kinase type 1 (Q14012 whole entry): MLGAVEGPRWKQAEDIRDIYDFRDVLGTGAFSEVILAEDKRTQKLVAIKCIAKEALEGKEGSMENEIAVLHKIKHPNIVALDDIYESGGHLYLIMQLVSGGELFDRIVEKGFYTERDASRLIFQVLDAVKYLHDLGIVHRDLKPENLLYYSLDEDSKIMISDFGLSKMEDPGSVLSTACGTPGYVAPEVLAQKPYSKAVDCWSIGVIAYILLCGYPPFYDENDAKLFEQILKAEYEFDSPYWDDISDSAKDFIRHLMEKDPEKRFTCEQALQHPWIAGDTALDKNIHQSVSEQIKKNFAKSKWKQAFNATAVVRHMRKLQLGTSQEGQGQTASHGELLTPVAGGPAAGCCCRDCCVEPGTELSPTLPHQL

[13] = biological target: RAC-gamma serine/threonine-protein kinase (Homo sapiens, UniProt Q9Y243); format: functional
Chain of RAC-gamma serine/threonine-protein kinase (Q9Y243 whole entry): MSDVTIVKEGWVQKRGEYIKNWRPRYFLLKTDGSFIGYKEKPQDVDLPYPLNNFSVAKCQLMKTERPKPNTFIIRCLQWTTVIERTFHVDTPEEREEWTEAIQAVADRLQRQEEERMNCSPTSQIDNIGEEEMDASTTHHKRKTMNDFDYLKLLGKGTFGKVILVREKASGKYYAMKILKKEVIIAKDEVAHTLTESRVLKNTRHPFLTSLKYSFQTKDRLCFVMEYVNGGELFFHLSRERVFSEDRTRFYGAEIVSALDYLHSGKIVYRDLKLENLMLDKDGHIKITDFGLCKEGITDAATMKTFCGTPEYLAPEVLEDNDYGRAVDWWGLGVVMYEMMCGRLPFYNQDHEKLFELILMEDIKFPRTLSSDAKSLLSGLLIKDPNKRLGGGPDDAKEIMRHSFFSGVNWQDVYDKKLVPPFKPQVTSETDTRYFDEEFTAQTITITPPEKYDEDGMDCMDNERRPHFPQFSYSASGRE

[14] = biological target: Receptor-type tyrosine-protein kinase FLT3 (Homo sapiens, UniProt P36888); format: functional;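 further: FLT3 was tested as one member of a kinome-wide kinase panel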
[15] = biological target: Casein kinase II subunit alpha (Homo sapiens, UniProt P68400); format: functional
[16] = biological target: Insulin-like growth factor 1 receptor (Homo sapiens, UniProt P08069); experiment: Navigating the Kinome. Panel member name: IGF1R; format: functional
[17] = biological target: MAP kinase-interacting serine/threonine-protein kinase 2 (Homo sapiens, UniProt Q9HBH9); format: functional
Ephrin type-A receptor 2 = Ephrin type-A receptor 2 (Homo sapiens, UniProt P29317); format: functional;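 further: EPHA2 tested as one member of a kinome-wide kinase panel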
[18] = biological target: 3-phosphoinositide-dependent protein kinase 1 (Homo sapiens, UniProt O15530); format: functional;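 further: value comes from the Navigating the Kinome panel, PDPK1 member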
Streptokinase A = biological target: T2, Streptokinase A (Streptococcus pyogenes serotype M1, UniProt P10520); experiment: S. pyogenes streptokinase expression inhibitors, potency, dose response, plasminogen activation absorbance, OD405 (AID 1914); format: functional, Streptococcus pyogenes M1 GAS;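 further: secreted streptokinase activity via plasminogen activation per viability signal from cell pellet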
T2 sequence (P10520 whole entry): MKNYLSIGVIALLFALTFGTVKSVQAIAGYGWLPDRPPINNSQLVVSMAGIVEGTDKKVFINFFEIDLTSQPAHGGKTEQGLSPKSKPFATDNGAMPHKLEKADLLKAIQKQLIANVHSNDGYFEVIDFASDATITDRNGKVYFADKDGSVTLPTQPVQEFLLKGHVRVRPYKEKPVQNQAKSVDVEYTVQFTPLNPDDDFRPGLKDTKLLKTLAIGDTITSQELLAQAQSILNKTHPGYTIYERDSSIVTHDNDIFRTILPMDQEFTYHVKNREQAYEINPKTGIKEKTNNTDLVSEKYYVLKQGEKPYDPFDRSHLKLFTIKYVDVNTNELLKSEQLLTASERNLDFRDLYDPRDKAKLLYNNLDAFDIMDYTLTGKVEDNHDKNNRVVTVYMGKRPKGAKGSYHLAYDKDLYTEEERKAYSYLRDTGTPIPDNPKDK

[19] = cytotoxicity toward HCT116 cells – cell-based, CellTiter-Glo luminescence, IC50, dose response (AID 1117332); format: functional; conditions: HCT-116

## O=C1C=C(N2CCOCC2)c2ccccc2C1=O
[1]
  IC50: 1.27 µM (active)
[2]
  EC50: 13.3 µM (active)

## N#Cc1ccc2[nH]c(O)c(-c3ccc(CN4CCOCC4)cn3)c2c1 [AZD-1080]
[3]
  Ki: > 5.01 µM (inactive)
[4]
  Ki: > 3.16 µM (inactive)
[5]
  Ki: > 6.31 µM (inactive)
[6]
  Ki: > 3.16 µM (inactive)
[7]
  Ki: > 2 µM (inactive)
[8]
  Ki: > 3.98 µM (inactive)
[9]
  Ki: > 7.94 µM (inactive)
Insulin receptor
  Ki: > 5.01 µM (inactive)
Aurora kinase A
  Ki: > 1.58 µM (inactive)
[10]
  Ki: > 10 µM (inactive)
[11]
  Ki: > 3.98 µM (inactive)
[12]
  Ki: > 6.31 µM (inactive)
[13]
  Ki: > 10 µM (inactive)
[14]
  Ki: > 3.16 µM (inactive)
[15]
  Ki: > 6.31 µM (inactive)
[16]
  Ki: > 2.51 µM (inactive)
[17]
  Ki: > 10 µM (inactive)
Ephrin type-A receptor 2
  Ki: > 3.16 µM (inactive)
[18]
  Ki: > 3.98 µM (inactive)

## CCc1oc2ccccc2c1C(=O)c1cc(Br)c(O)c(Br)c1 [BENZBROMARONE]
Streptokinase A
  EC50: 17.2 µM (inconclusive)
[19]
  IC50: 1.06 µM (active)
